Reference: patent US11440923B2, “Substituted macrocyclic indole derivatives” (Bayer Aktiengesellschaft, priority 2017, dated 2022)
Where two headings read alike, the source gives them in different places.

What was measured:
SUDHL10 cells [1] = test: Induction of caspase-3/7 activity in SUDHL10 cells (Assay 4); assay type: cell-based; conditions: caspase-3/7 induction, 3 h, read-out: Caspase SUDHL10 EC50 (median)
Method in brief: (§1)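 Caspase-3/7 activity measured in DLBCL lines after 3 h compound exposure at 37 °C, following overnight plating; Caspase-Glo 3/7 luminescence read after 1 h at 37 °C. Medium-only background subtracted, values normalized to mean of DMSO-treated cells.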

MCL-1 = MCL-1 (Homo sapiens (Human), UniProt Q07820, K194A/K197A/R201A); test: Protein-protein interaction assay MCL-1/Noxa BH3 peptide (MCL-1 assay, TR-FRET); assay type: binding
Experimental: The dose-dependent inhibition by the compounds described in this invention of the interaction between MCL-1 and the BH3 domain of Noxa (both human) was determined using a steady state binding competition assay with time-resolved fluorescence energy transfer (TR-FRET) readout. For that purpose MCL-1 (amino acids 173-321, N-terminal fused to Maltose Binding Protein (MBP) SEQ ID 1)) and a synthetic Noxa BH3-derived peptide of sequence Biotin-PEG2-PEG2-PAELEVE-Nva-[…]-amide (SEQ ID 2) served as protein receptor and tracer ligand respectively. The MBP-MCL-1 was purchased from Beryllium (Bedford, Mass., USA). The expression and purification of this protein construct has been described elsewhere (DOI:10.1371/journal.pone.0125010). The Noxa BH3-derived peptide can be obtained from e.g. Biosyntan (Berlin, Germany).
For that, 100-fold concentrated DMSO solutions were prepared by serial dilutions (1:3.4) of a 2 mM stock solution in a clear, 384-well microtiter plate (Greiner Bio-One, Frickenhausen, Germany). From there, 50 nl were transferred in a dark test plate (Greiner Bio-One, Frickenhausen, Germany). The assay was initiated by addition of 2 μL of a 2,5-fold concentrated MBP-MCL-1 solution (usually for a 1 nM end concentration in 5 μL reaction volume) in aqueous assay buffer [50 mM Tris/HCl pH 7, 100 mM sodium chloride (NaCl), 50 mM potassium fluoride (KF), 0.005% Tween-20, 2 mM DTT, 0.1% bovine gamma globulin (BGG)] to the compounds in the assay plate. This was followed by a 10-minute incubation step at 22° C. for pre-equilibration of the putative complex between MBP-MCL-1 and the compounds.
The mixture was incubated in the dark for one hour at 22° C. and then overnight at 4° C. The formation of MCL-1/Noxa complexes was determined by measuring the resonance energy transfer of the anti-MBP-Eu-cryptate antibody to the streptavidin-XL665 present in the reaction.
For that purpose, the fluorescence emission at 620 nm and 665 nm after excitation at 330-350 nm was measured in a TR-FRET measuring instrument, for instance a Rubystar or a Pherastar (both from BMG Lab Technologies, Offenburg, Germany) or a Viewlux (Perkin-Elmer). The ratio of the emission at 665 nm and at 622 nm was used as indicator of the amount of MCL-1/NOXA complexes present.
The resulting data (ratio) were normalized, taking 0% inhibition as the mean value of control measurements (usually 32 data points) where all reagents were included. In this case 50 nl DMSO were used instead of compounds. […] IC50 values were determined by regression analysis based on a 4 parameter equation (minimum, maximum, IC50, Hill; Y=Max+(Min−Max)/(1+(X/IC50)^Hill) using the Screener Software (Genedata).

AMO-1 cells = test: Antiproliferation assay AMO-1 (Assay 7); assay type: cell-based; conditions: 72 h, CellTiter-Glo, read-out: Antiproli AMO-1 IC50 median
Method in brief: (§2)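 CTG luminescence readout; cells plated, overnight at 37 °C, then 72 h compound treatment. Time-zero plate read in parallel. IC50 from day 0 and DMSO-normalised signal.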

SUDHL5 cells [2] = test: Induction of cytotoxicity in SUDHL5 cells (Assay 6); assay type: cell-based
Method in brief: (§3)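 Run alongside apoptosis measurements, this cytotoxicity readout used cells treated with compound for 5 h at 37 °C and quantified ATP-based luminescence with CellTiter-Glo.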

SUDHL10 cells [3] = test: Induction of cytotoxicity in SUDHL10 cells (Assay 6); assay type: cell-based
Method in brief: as §3

HMC-1-8 cells = test: Antiproliferation assay HMC-1-8 (Assay 7); assay type: cell-based
Method in brief: as §2

SUDHL5 cells [4] = test: Antiproliferation assay SUDHL5 (Assay 7); assay type: cell-based; conditions: 72 h, CellTiter-Glo, read-out: Antiproli SUDHL5 IC50 (median)
Method in brief: as §2

SUDHL5 cells [5] = test: Induction of caspase-3/7 activity in SUDHL5 cells (Assay 4); assay type: cell-based; conditions: caspase-3/7 induction, 3 h, read-out: Caspase SUDHL5 EC50 (median)
Method in brief: as §1

[6] = 5 h, CellTiter-Glo, read-out: Cytotox SUDHL5 IC50 (median)
[7] = 5 h, CellTiter-Glo, read-out: Cytotox SUDHL10 IC50 (median)
[8] = 72 h, CellTiter-Glo; read-out: Antiproli HMC-1-8 IC50 median
[9] = Homo sapiens, SU-DHL-5, 5 h, 5 h, CellTiter-Glo, read-out: Cytotox SUDHL5 IC50 (median)
[10] = Homo sapiens, SU-DHL10, 5 h, 5 h, CellTiter-Glo, read-out: Cytotox SUDHL10 IC50 (median)
[11] = 72 h, CellTiter-Glo, read-out: Antiproli HMC-1-8 IC50 median

Sequence of MCL-1 (Q07820 whole entry, looked up, stated change not applied, the tested form may be a part): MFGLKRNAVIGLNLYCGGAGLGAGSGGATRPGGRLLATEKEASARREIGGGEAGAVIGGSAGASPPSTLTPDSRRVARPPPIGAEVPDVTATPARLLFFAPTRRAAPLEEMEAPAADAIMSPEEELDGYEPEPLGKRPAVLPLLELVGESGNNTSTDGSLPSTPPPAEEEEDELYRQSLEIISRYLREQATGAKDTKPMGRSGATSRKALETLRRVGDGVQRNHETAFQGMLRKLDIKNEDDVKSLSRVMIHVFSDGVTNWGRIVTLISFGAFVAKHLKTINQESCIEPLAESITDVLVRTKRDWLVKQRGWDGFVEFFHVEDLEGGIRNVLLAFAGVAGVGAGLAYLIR

SMILES | EC50 (SUDHL10 cells [1]) [nM] | IC50 (MCL-1; MCL-1 Assay IC50 (median)) [nM] | IC50 (AMO-1 cells) [nM] | IC50 (SUDHL5 cells [2]; [6]) [nM] | IC50 (SUDHL10 cells [3]; [7]) [nM] | IC50 (HMC-1-8 cells; [8]) [nM] | IC50 (SUDHL5 cells [4]) [nM] | EC50 (SUDHL5 cells [5]) [nM] | EC50 (SUDHL10 cells [1]; Homo sapiens, SU-DHL10, 3 h) [nM] | IC50 (AMO-1 cells; Homo sapiens, AMO1, 72 h) [nM] | IC50 (SUDHL5 cells [2]; [9]) [nM] | IC50 (SUDHL10 cells [3]; [10]) [nM] | IC50 (HMC-1-8 cells; [11]) [nM] | IC50 (SUDHL5 cells [4]; Homo sapiens, SU-DHL-5, 72 h) [nM] | EC50 (SUDHL5 cells [5]; Homo sapiens, SU-DHL-5, 3 h) [nM] | IC50 (MCL-1; read-out: MCL-1 Assay IC50 (median)) [nM] | IC50 (SUDHL5 cells [2]) [nM] | IC50 (SUDHL10 cells [3]) [nM]
CCc1c2c(nn1C)C(CCCN1CCOCC1)OCCCCn1c(C(=O)O)c(CCCOc3cccc4cc(F)ccc34)c3ccc(Cl)c-2c31 (single isomer, unassigned; enantiomer 2) [Example 67, (−)-4-chloro-3-ethyl-7-{3-[(6-fluoronaphthalen-1-yl)oxy]propyl}-2-methyl-15-[3-(morpholin-4-yl)propyl]-2,10,11,12,13,15-hexahydropyrazolo[4′,3′:9,10][1,6]oxazacycloundecino[8,7,6-hi]indole-8-carboxylic Acid (Enantiomer 2)] | 4400 | 7.8 | 633 | 2600 | 4900 | > 33000 | 2100 | 1600 |  |  |  |  |  |  |  |  |  | 
CCc1c2c(nn1C)C(CCN(C)OC)OCCCCn1c(C(=O)O)c(CCCOc3cccc4cc(F)ccc34)c3ccc(Cl)c-2c31 (racemic) [Example 80, (rac)-4-chloro-3-ethyl-7-{3-[(6-fluoronaphthalen-1-yl)oxy]propyl}-(15-rac)-{2-[methoxy(methyl)amino]ethyl}-2-methyl-2,10,11,12,13,15-hexahydropyrazolo[4′,3′:9,10][1,6]oxazacycloundecino[8,7,6-hi]indole-8-carboxylic Acid] |  | 3.5 |  |  |  |  |  |  | 130 | 47.4 | 150 | 250 | 1590 | 170 | 140 |  |  | 
CCc1c2c(nn1C)C(CCN1CC(F)(F)C1)OCCCCn1c(C(=O)O)c(CCCOc3cccc4cc(F)ccc34)c3ccc(Cl)c-2c31 (racemic) [Example 77, (rac)-4-chloro-(15-rac)-[2-(3,3-difluoroazetidin-1-yl)ethyl]-3-ethyl-7-{3-[(6-fluoronaphthalen-1-yl)oxy]propyl}-2-methyl-2,10,11,12,13,15-hexahydropyrazolo[4′,3′:9,10][1,6]oxazacycloundecino[8,7,6-hi]indole-8-carboxylic Acid] |  | 1.7 |  |  |  |  |  |  | 37 | 31.5 | 45 | 100 | 520 | 71 | 31 |  |  | 
CCc1c2c(nn1C)C(CCC1CCOCC1)N(C)CCCCn1c(C(=O)O)c(CCCOc3cccc4cc(F)ccc34)c3ccc(Cl)c-2c31 (stereo not drawn) [Example 101, 4-chloro-3-ethyl-7-{3-[(6-fluoro-1-naphthyl)oxy]propyl}-2,14-dimethyl-15-[2-(tetrahydro-2H-pyran-4-yl)ethyl]-10,11,12,13,14,15-hexahydro-2H-pyrazolo[3′,4′:8,9][1,6]diazacycloundecino[10,11,1-hi]indole-8-carboxylic Acid] | 51 |  | 95.8 |  |  | 1490 | 110 | 69 |  |  |  |  |  |  |  | 1.8 | 140 | 71
CCc1c2c(nn1C)C1CCCN1CCCCn1c(C(=O)O)c(CCCOc3cccc4cc(F)ccc34)c3ccc(Cl)c-2c31 (racemic) [Example 107, (rac)-17-chloro-1-ethyl-14-{3-[(6-fluoronaphthalen-1-yl)oxy]propyl}-2-methyl-3b,4,5,6,8,9,10,11-octahydro-2H-pyrazolo[3′,4′:8,9]pyrrolo[1′,2′:6,7][1,6]diazacycloundecino[10,11,1-hi]indole-13-carboxylic Acid] | 1200 | 1.1 | 1340 | 690 | 890 | 6640 | 1100 | 540 |  |  |  |  |  |  |  |  |  | 
CCc1c2c(nn1C)C(CCN1CC(F)C1)OCCCCn1c(C(=O)O)c(CCCOc3cccc4cc(F)ccc34)c3ccc(Cl)c-2c31 (racemic) [Example 108, (rac)-4-chloro-3-ethyl-15-[2-(rac)-(3-fluoroazetidin-1-yl)ethyl]-7-{3-[(6-fluoronaphthalen-1-yl)oxy]propyl}-2-methyl-2,10,11,12,13,15-hexahydropyrazolo[4′,3′:9,10][1,6]oxazacycloundecino[8,7,6-hi]indole-8-carboxylic Acid] |  | 1.2 |  |  |  |  |  |  | 67 | 51.8 | 84 | 130 | 1870 | 70 | 66 |  |  | 
